Patent US9320722B2, “Regulators of aldehyde dehydrogenase ALDH3A1 and related therapeutic methods” (Indiana University Research and Technology Corporation, priority 2013, dated 2016)
Read-outs that look alike come from different tables or passages of the source.

How the values were obtained:
[1] = Solubility; type: physicochemical; settings: for concentration of homogenous solution easily formed: in the presence of […] DMSO
[2] = biological target: T1, ALDH3A1 (Homo sapiens (Human), UniProt P30838)
Description: (§2) The enzymatic activity of ALDH1A1, ALDH2 and ALDH3A1 were measured as described previously^[30,34,37,39].
(§3) All reactions were initiated by the addition of the aldehyde substrate. The inhibition curves were fit to the Logistic four parameter IC50 equation using the SigmaPlot (v11, StatSys). We characterized the mode of inhibition using steady-state kinetics through co-variation of inhibitor and substrate concentrations. The steady state kinetic measurements were performed in 100 mM Na2HPO4 buffer, pH 7.5. […] In all cases—including the control reactions lacking inhibitors, the final reaction mixture contained 2% (v/v) DMSO. The reaction was initiated by addition of substrate and the initial rate of product formation was determined on a Beckman DU-640. All data were fit to the non-linear velocity expressions for competitive, non-competitive, mixed-type non-competitive and uncompetitive inhibition^[40]. Appropriateness of the inhibition model was determined through analysis of goodness-of-fit and the residuals of those fits. Lineweaver-Burke plots were created using SigmaPlot (v11, StatSys) to visualize the inhibition patterns. All data represent the average of three independent experiments utilizing triplicate assays at each concentration point.
(§4) ALDH1A1, ALDH2 and ALDH3A1 activities were measured as described earlier^33,44,45. […] Reaction was initiated by the addition of the aldehyde substrate. […] The inhibition curves were fit to the Logistic four parameter IC50 equation using the SigmaPlot (v11, StatSys). Steady state kinetic experiments were performed by co-varying inhibitor and substrate concentrations. The steady state kinetic measurements were performed in 100 mM Na2HPO4 buffer, pH 7.5.

[3] = biological target: ALDH1A1 (Homo sapiens (Human), UniProt P00352); assay: ALDH1A1 dehydrogenase activity / IC50 determination (propionaldehyde substrate); type: biochemical; settings: for inhibitory potential / activity toward ALDH1A1 in vitro (in words): CB29 analogs; for IC50: Table 4, hits from ChemDiv screen, read-out: IC50 (micromolar) ALDH1A1
Description: as §2, §3, §4

[4] = test system: SF767 cells; assay: MTT assay for cell proliferation / mafosfamide sensitivity, SF767; type: cell-based; settings: for sensitivity to mafosfamide on co-treatment (in words), SF767: 50 μM inhibitor + […] mafosfamide; for sensitivity to mafosfamide on co-treatment (in words), SF767 / effect on cell proliferation as single agent (in words), SF767: FIG. 4B; for effect on cell proliferation as single agent (in words), SF767: 50 μM inhibitor
[5] = biological target: ALDH2 (Homo sapiens (Human), UniProt P05091); assay: ALDH2 dehydrogenase activity / IC50 determination (propionaldehyde substrate); type: biochemical; settings: for inhibitory potential toward ALDH2 activity in vitro (in words): CB29 analogs; for IC50: Table 4, hits from ChemDiv screen, NI not defined, read-out: IC50 (micromolar) ALDH2
Description: The enzymatic activity of ALDH1A1, ALDH2 and ALDH3A1 were measured as described previously^[30,34,37,39]. The specific activities of the purified proteins were 1.9, 3.8 and 32 μmole/min/mg for ALDH1A1, ALDH2 and ALDH3A1 respectively.
as §3, §4

[6] = test system: A549 cells; assay: MTT assay for cell proliferation / mafosfamide sensitivity, A549; type: cell-based; settings: FIG. 4A; for sensitivity to mafosfamide on co-treatment (in words), A549: 50 μM inhibitor + mafosfamide; for effect on cell proliferation as single agent (in words), A549: 50 μM inhibitor
[7] = biological target: T1, ALDH3A1; assay: biochemical; settings: for inhibition at 10 µM: read-out: % activity left after treating with 10 micromolar inhibitor ALDH3A1
Description: as §2, §3, §4

[8] = biological target: ALDH3A1 Q122W mutant (Homo sapiens (Human), UniProt P30838, Q123W)
Description: (§1) These two mutant proteins were purified exactly the same way as was ALDH3A1. […] Kinetic experiments were performed exactly the same way as the wild type (WT) enzyme.

[9] = biological target: ALDH3A1 Q122A mutant (Homo sapiens (Human), UniProt P30838, Q123A)
Description: as §1

[10] = biological target: T1, ALDH3A1; type: biochemical; settings: wt ALDH3A1
Description: as §3
Reaction was initiated by the addition of the aldehyde substrate. […] The inhibition curves were fit to the Logistic four parameter IC50 equation using the SigmaPlot (v11, StatSys). Steady state kinetic experiments were performed by co-varying inhibitor and substrate concentrations. The steady state kinetic measurements were performed in 100 mM Na2HPO4 buffer, pH 7.5.
The initial rate of product formation was determined on a Beckman DU-640. All data were fit to the non-linear velocity expressions for competitive, non-competitive, mixed-type non-competitive and uncompetitive inhibition^46. Appropriateness of the inhibition model was determined through analysis of goodness-of-fit and the residuals of those fits. Lineweaver-Burke plots were created using SigmaPlot (v11, StatSys) to visualize the inhibition patterns. All data represent the average of three independent experiments utilizing triplicate assays at each concentration point.

[11] = read-out: IC50 (micromolar) ALDH3A1, Tables 1A/1B, benzaldehyde substrate, S.D. for three assays in parentheses
[12] = read-out: IC50 against ALDH3A1, benzaldehyde substrate
[13] = read-out: ALDH3A1 IC50 (micromolar), Table 4(B), hits from ChemBridge screen
[14] = read-out: IC50 (micromolar) ALDH3A1, Table 4, hits from ChemDiv screen

Sequence of ALDH1A1 (P00352 whole entry): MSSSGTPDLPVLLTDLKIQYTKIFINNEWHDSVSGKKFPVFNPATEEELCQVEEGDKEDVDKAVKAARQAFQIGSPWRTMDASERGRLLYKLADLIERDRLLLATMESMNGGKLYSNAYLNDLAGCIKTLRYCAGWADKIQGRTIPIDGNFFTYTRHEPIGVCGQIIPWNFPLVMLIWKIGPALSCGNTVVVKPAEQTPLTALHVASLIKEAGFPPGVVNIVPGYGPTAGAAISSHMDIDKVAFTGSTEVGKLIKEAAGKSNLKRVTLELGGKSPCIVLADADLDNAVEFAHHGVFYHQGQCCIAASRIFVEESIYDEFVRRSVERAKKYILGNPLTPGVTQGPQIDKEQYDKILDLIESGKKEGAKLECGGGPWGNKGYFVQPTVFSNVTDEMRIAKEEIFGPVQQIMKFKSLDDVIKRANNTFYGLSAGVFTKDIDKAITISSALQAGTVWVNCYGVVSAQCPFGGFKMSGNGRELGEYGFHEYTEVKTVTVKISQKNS
Sequence of ALDH3A1 Q122A mutant (P30838 whole entry Q123A): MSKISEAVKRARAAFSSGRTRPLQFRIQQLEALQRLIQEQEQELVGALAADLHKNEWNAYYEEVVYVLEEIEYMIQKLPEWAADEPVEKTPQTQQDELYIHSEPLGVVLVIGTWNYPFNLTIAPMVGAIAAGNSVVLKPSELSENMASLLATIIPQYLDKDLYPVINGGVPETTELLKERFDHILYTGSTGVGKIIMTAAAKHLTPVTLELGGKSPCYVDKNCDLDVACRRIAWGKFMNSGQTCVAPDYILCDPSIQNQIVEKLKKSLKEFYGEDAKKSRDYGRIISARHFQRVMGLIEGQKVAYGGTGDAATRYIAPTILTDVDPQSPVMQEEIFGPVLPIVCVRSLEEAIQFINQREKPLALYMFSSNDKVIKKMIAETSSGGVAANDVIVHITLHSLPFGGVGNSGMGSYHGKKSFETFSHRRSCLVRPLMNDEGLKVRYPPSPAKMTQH
Sequence of ALDH3A1 Q122W mutant (P30838 whole entry Q123W): as the sequence (P30838 whole entry Q123A) above, with A123W counted along it
T1 sequence (P30838 whole entry): as the sequence (P30838 whole entry Q123A) above, with A123Q counted along it
Sequence of ALDH2 (P05091 18-517): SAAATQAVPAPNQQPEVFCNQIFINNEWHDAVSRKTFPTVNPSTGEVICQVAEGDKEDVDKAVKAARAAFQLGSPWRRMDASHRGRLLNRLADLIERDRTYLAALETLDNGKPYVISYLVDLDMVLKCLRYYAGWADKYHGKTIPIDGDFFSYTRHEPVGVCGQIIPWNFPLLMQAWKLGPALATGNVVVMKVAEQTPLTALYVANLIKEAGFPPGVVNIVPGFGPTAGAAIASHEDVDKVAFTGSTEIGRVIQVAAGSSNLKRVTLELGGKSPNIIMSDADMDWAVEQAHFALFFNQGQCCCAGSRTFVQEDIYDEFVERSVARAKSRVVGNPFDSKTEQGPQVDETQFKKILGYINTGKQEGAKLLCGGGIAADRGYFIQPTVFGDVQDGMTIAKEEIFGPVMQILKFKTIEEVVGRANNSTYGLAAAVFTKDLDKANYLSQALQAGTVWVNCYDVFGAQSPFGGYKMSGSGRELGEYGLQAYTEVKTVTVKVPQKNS

Cc1nc2ccccc2n1S(=O)(=O)c1ccc(F)cc1 [CB7, 1-[(4-fluorophenyl)sulfonyl]-2-methyl-1H-benzimidazole]
solubility (in words) [1]: very good solubility

CNS(=O)(=O)c1ccc(Nc2ccc(F)cc2)c([N+](=O)[O-])c1 [Compound 2]
IC50 [2, 11]: 26 µM
IC50 [2, 12]: 26 µM
inhibitory potential / activity toward ALDH1A1 in vitro (in words) [3]: no inhibitory potential
sensitivity to mafosfamide on co-treatment (in words), SF767 [4]: increased sensitivity to mafosfamide
effect on cell proliferation as single agent (in words), SF767 [4]: little effect on cell proliferation
inhibitory potential toward ALDH2 activity in vitro (in words) [5]: no inhibitory potential
concentration of homogenous solution easily formed [1]: ≥ 100 µM
sensitivity to mafosfamide on co-treatment (in words), A549 [6]: increased sensitivity to mafosfamide
effect on cell proliferation as single agent (in words), A549 [6]: little effect on cell proliferation

CCN(CC)CCC(=O)c1ccc2c(c1)OCO2 [CB12]
IC50 [2, 13]: 3.2 µM

CNS(=O)(=O)c1ccc(Nc2ccc(OC)cc2)c([N+](=O)[O-])c1 [Compound 10]
IC50 [2, 11]: 31.7 µM
IC50 [2, 12]: 31 µM
inhibitory potential / activity toward ALDH1A1 in vitro (in words) [3]: no inhibitory potential
effect on cell proliferation as single agent (in words), SF767 [4]: little effect on cell proliferation
inhibitory potential toward ALDH2 activity in vitro (in words) [5]: no inhibitory potential
concentration of homogenous solution easily formed [1]: ≥ 100 µM
effect on cell proliferation as single agent (in words), A549 [6]: little effect on cell proliferation

O=C(NC(O)C(=O)c1cccs1)c1ccncc1 (stereo not drawn) [CD12]
IC50 [2, 14]: 5.6 µM
IC50 [3]: 4.2 µM
IC50 [5]: 5.3 µM

O=[N+]([O-])c1ccc(N2CCCC2)c(F)c1 [CB14]
inhibition at 10 µM [7]: 47%

CN(C)c1ccc(/C=C/[N+](=O)O)cc1Br [CB41]
inhibition at 10 µM [7]: 45%

c1ccc(CNc2nc(-c3ccccn3)cs2)cc1 [CB27]
inhibition at 10 µM [7]: 43%

O=C(O)CCc1ccc(-c2ccc(F)cc2)o1 [CB32]
inhibition at 10 µM [7]: 36%

Cc1cc(OCC(=O)O)c([N+](=O)O)cc1Cl [CB3]
inhibition at 10 µM [7]: 55%

Cc1nc2ccccc2n1S(=O)(=O)c1ccc(Cl)cc1 [Compound A20]
chemosensitivity to mafosfamide (in words), SF767 ([4]; 10 μM inhibitor + mafosfamide): significantly increased chemosensitivity

Cc1ccc(Nc2ccc(S(C)(=O)=O)cc2[N+](=O)[O-])cc1F [Compound 8]
IC50 [2, 11]: 10.8 µM
inhibitory potential / activity toward ALDH1A1 in vitro (in words) [3]: no inhibitory potential
IC50 (micromolar) ALDH1A1 ([3]; Tables 1A/1B, propionaldehyde substrate, S.D. in parentheses): WA (WA represents (30-50) % activation shown by 100 μM compound to respective enzymes)
sensitivity to mafosfamide on co-treatment (in words), SF767 [4]: increased sensitivity to mafosfamide
effect on cell proliferation as single agent (in words), SF767 [4]: little effect on cell proliferation
inhibitory potential toward ALDH2 activity in vitro (in words) [5]: no inhibitory potential
IC50 [7]: 10 µM
concentration of homogenous solution easily formed [1]: ≥ 100 µM
sensitivity to mafosfamide on co-treatment (in words), A549 [6]: increased sensitivity to mafosfamide
effect on cell proliferation as single agent (in words), A549 [6]: little effect on cell proliferation

C=CCOc1ccc(/C=C/[N+](=O)O)cc1OC [CB35]
inhibition at 10 µM [7]: 46%

Cc1cccc(C(=O)CN2CCN(S(=O)(=O)c3cc(Cl)ccc3Cl)CC2)c1 [CD20]
IC50 [2, 14]: 41 µM
IC50 [3]: 33 µM

C#CCOc1ccc(/C=C/[N+](=O)O)cc1 [CB36]
inhibition at 10 µM [7]: 30%

CCn1c(-c2ccc(OC)c(F)c2)cs/c1=N/c1ccccc1 [CD13]
IC50 [2, 14]: 60 µM
IC50 [3]: 6.3 µM
IC50 [5]: 7.3 µM

CCCSc1nnc2c(n1)OC(C(=O)c1ccc(OC)cc1)Nc1ccccc1-2 (stereo not drawn) [CD4]
IC50 [2, 14]: 2.5 µM
IC50 [3]: 21.2 µM
IC50 [5]: 1.4 µM

N#CSC1CN=C(NC2CCCCC2)S1 (stereo not drawn) [CB6]
inhibition at 10 µM [7]: 6%

CCNC(=O)CC1Nc2cc(C)c(C)cc2NC1=O (stereo not drawn) [CB16]
inhibition at 10 µM [7]: 50%

Cc1cc(C2CNc3ccccc32)oc(=O)c1 (stereo not drawn) [CB4]
inhibition at 10 µM [7]: 60%

Nc1ccc(-c2cc(C(=O)O)c3ccccc3n2)cc1 [CB5]
inhibition at 10 µM [7]: 34%

N#CSCCCCOc1ccc(Cl)cc1 [CB1]
IC50 [2, 13]: 3.7 µM

CCC=O [Propionaldehyde]
Propionaldehyde Kcat/Km [8]: 650 ± 83 M⁻¹ s⁻¹
Propionaldehyde Kcat/Km ([8]; listed as propionaldehyde): 650 M⁻¹ s⁻¹
Km ([8]; read-out: Propionaldehyde Km): 5.36 ± 0.59 mM
Propionaldehyde Kcat/Km [9]: 817 ± 50 M⁻¹ s⁻¹
Propionaldehyde Kcat/Km ([9]; listed as propionaldehyde): 817 M⁻¹ s⁻¹
Km ([9]; read-out: Propionaldehyde Km): 23.9 ± 1.99 mM
Propionaldehyde Kcat/Km [10]: 830 ± 50 M⁻¹ s⁻¹
Propionaldehyde Kcat/Km ([10]; listed as propionaldehyde): 830 M⁻¹ s⁻¹
Km ([10]; read-out: Propionaldehyde Km): 20.5 ± 0.272 mM

CCOC(=O)CN1C(=O)C(O)(CC(=O)c2ccccn2)c2ccccc21 (stereo not drawn) [CD7]
IC50 [2, 14]: 25.5 µM
IC50 [3]: 0.7 µM
